Each structure is given as a SMILES string.

1 compound from publication PMC5041986 (Oncotarget, 2016) can be followed below.

In one test the test system is HUVEC. The test can be described thus: MTT cell viability assay. In kind it is cell-based. Conditions: Homo sapiens, HUVEC (normal cell), 72 h.
The next test deals with RT-112 cells. In words: Flow cytometric cell cycle analysis. In kind it is cell-based. Conditions: flow cytometry. As to the method:
Cells were seeded in 6-well plates and treated with DMSO or indicated compounds at various concentrations for the indicated times. After treatment, the cells were harvested by trypsinization, washed with PBS, and the pellets were fixed in ice-cold 70% ethanol at -20°C overnight. After centrifugation, the cells were incubated for 15 minutes at room temperature in 0.1 mL of phosphate-citric acid buffer (0.2 M NaHPO4, 0.1 M citric acid, and pH 7.8) and then stained with propidium iodide staining buffer containing Triton X-100 (0.1%, v/v), RNase A (100 μg/mL), and propidium iodide (80 μg/mL) for 30 minutes in the dark. DNA contents were analyzed by flow cytometry with CellQuest software (Becton Dickinson, Mountain View, CA, USA). The results were obtained from three independent experiments and the representative data were shown in Supplementary Figure S8 and S9.
(In flow cytometry, cells or beads pass a laser one at a time.)

Procedure for HUVEC: Cells were seeded in 96-well plates and exposed to DMSO, or indicated compounds for 72 hours. Cell viability was assessed using the 3-(4,5-dimethylthiazol-2-yl)-2,5-diphenyltetrazolium bromide (MTT) assay as described previously [46]. Briefly, 100 μl of 0.5 mg/ml MTT were added to each well and incubated at 37°C for 1 hour. After that, 100 μl of extraction reagents (0.1 M sodium acetate buffer for suspension cells or DMSO for attached cells) were added to each well to lyse cells and absorbance at 550 nm was measured. Cell viability was expressed as the percentage of surviving cells in drug-treated versus DMSO-treated control cells (which was considered as 100% viability).

As usually defined, the IC50 is the midpoint of a concentration-inhibition curve. Low readings indicate greater potency in that assay, high ones weaker potency in that assay. Take `CCN1CCN(c2ccc(Nc3cc(N(C)C(=O)Nc4c(Cl)c(OC)cc(OC)c4Cl)ncn3)cc2)CC1` [BGJ-398, 3-(2,6-dichloro-3,5-dimethoxy-phenyl)-1-{6-[4-(4-ethyl-piperazin-1-yl)-phenylamino]-pyrimidin-4-yl}-1-methyl-urea]: in the test on HUVEC, the IC50 stood at 50 nM. Besides, in the test with RT-112 cells (4 μM, 24 h), the “G0/G1 cell cycle arrest” value was “also observed”. For the same compound, in the test with RT-112 cells (48 h to 72 h), the “accumulation of the sub-G1 phase (apoptotic cell death)” value is reported as “induced pronounced apoptosis”.
